This is an account of results in US20050192279A1, “Pyridazinones as antagonists of alpha4 integrins” (priority 2004, published 2005).

In one test the target is T1, α4β1 (Homo sapiens, UniProt P05556+P13612).
T1 construct: Ramos Cell Adhesion Assay (α4β1 Mediated Adhesion/VCAM-1); endogenous in cells; host or cells: Ramos cells
Description: Ramos Cell Adhesion Assay (α4β1 Mediated Adhesion/VCAM-1). The test is classed as cell-based. The conditions noted are these: Ramos cell adhesion to hVCAM-1; read-out: α4β1 IC50. The gist of the method: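 Plates coated overnight at 4° C with recombinant hVCAM-1 at 4.0 μg/mL, pH 9.0, then blocked in PBS/1% BSA. Calcein AM-labeled Ramos cells added with compounds and left to adhere 1 h at room temperature; after washing, cells lysed in 1 M Tris pH 8.0/1% SDS.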

A further test has as its system TNBS induced colitis. Put plainly: Trinitrobenzenesulfonic acid (TNBS) Induced Colitis, rats. The class given is in vivo, Male Wistar rats. The conditions noted are these: 30 mg/kg po bid, rat. From the text: In Vivo Model: Trinitrobenzenesulfonic acid (TNBS) Induced Colitis The TNBS model of experimental colitis (Bobin-Dubigeon, C., Collin, X., Grimaud, N., Robert, J-M., Guillaume Le Baut, G., and Petit, J-Y. Effects of tumour necrosis factor-a synthesis inhibitors on rat trinitrobenzene sulphonic acid-induced chronic colitis. Eur. J. […] These symptomatic signs in the above—mentioned models are similar to what occur in human colitis. Male Wistar rats (200-250 g) are inoculated with 500 microliters of a solution of 10 to 20 mg of TNBS in 30% ethanol delivered intracolonically via catheter or ball-tipped gavage needle to the 8th cm from the anus. When Balb/c female mice (8-12 weeks of age) were used, the inoculation volume was 50 microliters containing 2-3 mg of TNBS in 30% ethanol delivered intracolonically via catheter or ball-tipped gavage needle to the 4th cm from the anus. During the ensuing 7 days, test animals were administered a preparation of an experimental compound. This material may be administered orally, subcutaenously or intraperitoneally, once or twice daily. At the end of this period, the animals were euthanized and their colons were collected for further analysis. Among the parameters analyzed were the length of the colon starting from the anus to the top of the cecum, the weight of the colon, the consistency of any stools found within the colon, the presence or absence of intraperitoneal adhesions on the serosal surfacr of the intestin, and the gross macroscopic appearance of the colon. […] In rats, the distal colon between the 5th and the 8th centimeter is dissected and placed in 10% neutral buffered formalin for later histological analysis. In mice, the 1st to the 4th cm was collected for histological analyses. For the following parameters—colon length, colon weight, stool consistency and appearance and macroscopic damage—a scoring system was used to describe the changes. The four scores for each animal were added to provide a Total Score. […] For the presence of blood in stool, one point was added to scores <3. […] Histological analyses of tissues consisted of staining paraffin-embedded tissue sections with hematoxylin-eosin dye. Epithelial damage scores were determined as the fraction of the tissue section showing damaged epithelium. […] Statistic analyses for these experiments performed with Graphpad Prism 4.0, using ANOVA, with Dunnets or Bonferroni's multiple comparisons test.

In a further test the target is T2, human α4β7 integrin (Homo sapiens, UniProt P13612+P26010).
T2 construct: expressed in transfected cells; host or cells: K562 cells, stably transfected
T2 sequence (P13612 34-1032): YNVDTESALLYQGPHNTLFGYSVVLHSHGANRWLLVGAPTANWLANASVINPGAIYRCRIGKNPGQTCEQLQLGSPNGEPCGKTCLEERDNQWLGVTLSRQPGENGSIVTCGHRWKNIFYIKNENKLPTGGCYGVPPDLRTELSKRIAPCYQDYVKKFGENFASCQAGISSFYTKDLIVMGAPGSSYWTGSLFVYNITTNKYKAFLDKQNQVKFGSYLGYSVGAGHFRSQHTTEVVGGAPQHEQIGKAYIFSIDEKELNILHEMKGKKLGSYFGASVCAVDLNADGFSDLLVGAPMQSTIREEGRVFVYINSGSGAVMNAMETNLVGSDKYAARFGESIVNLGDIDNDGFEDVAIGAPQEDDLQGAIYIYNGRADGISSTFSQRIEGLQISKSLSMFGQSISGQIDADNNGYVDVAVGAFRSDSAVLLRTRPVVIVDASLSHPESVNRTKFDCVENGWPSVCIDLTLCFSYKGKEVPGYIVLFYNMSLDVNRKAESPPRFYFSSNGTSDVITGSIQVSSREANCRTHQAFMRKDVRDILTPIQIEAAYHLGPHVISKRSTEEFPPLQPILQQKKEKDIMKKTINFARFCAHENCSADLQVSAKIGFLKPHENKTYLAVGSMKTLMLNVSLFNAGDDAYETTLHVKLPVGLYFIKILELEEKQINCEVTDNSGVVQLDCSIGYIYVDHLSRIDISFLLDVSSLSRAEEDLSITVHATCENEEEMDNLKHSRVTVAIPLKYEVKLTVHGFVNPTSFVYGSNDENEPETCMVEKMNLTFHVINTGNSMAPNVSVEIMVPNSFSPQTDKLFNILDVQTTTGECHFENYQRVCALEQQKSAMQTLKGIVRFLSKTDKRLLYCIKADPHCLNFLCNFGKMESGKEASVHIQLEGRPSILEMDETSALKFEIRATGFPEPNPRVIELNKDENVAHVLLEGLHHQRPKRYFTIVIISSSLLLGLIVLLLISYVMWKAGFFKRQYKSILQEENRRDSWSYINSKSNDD
T2 sequence (P26010 20-798): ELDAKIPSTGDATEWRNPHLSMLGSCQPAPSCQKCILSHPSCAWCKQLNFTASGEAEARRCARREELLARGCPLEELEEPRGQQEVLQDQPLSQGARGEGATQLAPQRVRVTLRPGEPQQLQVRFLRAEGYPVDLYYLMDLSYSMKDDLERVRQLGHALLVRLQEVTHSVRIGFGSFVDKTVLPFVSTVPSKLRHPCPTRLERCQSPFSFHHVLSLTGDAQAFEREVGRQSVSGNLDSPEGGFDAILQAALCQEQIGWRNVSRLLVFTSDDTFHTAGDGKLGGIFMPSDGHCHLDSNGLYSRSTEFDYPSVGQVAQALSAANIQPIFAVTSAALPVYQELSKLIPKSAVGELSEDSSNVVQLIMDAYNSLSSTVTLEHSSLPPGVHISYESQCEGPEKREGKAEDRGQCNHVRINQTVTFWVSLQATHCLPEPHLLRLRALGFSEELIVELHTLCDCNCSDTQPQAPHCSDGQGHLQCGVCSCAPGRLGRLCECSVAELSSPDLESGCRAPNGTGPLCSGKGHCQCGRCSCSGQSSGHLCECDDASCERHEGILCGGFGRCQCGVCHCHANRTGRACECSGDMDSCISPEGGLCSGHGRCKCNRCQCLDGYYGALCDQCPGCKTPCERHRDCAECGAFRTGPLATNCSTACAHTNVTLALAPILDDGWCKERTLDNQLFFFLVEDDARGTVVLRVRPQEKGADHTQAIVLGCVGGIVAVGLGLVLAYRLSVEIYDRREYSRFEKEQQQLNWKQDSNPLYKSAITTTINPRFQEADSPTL
Put plainly: α4β7-K562 Cell Adhesion Assay (α4β7 Mediated Adhesion/MAdCAM-1). The test is classed as cell-based. As to conditions: α4β7-K562 cell adhesion to hMAdCAM-1; read-out: α4β7 IC50. Put shortly: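 Anti-FLAG plates coated 1 h at 4° C with FLAG-hMAdCAM-1 in PBS pH 7.4, 1% BSA, 1 mM Mn2+. Stably transfected K562 cells expressing human α4β7, labelled with CFDA-SE, adhered with compound 1 h at room temperature. After four washes, bound cells lysed in 0.1 M NaOH for fluorescence read-out.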

T1 sequence (P05556 21-798, one chain of several): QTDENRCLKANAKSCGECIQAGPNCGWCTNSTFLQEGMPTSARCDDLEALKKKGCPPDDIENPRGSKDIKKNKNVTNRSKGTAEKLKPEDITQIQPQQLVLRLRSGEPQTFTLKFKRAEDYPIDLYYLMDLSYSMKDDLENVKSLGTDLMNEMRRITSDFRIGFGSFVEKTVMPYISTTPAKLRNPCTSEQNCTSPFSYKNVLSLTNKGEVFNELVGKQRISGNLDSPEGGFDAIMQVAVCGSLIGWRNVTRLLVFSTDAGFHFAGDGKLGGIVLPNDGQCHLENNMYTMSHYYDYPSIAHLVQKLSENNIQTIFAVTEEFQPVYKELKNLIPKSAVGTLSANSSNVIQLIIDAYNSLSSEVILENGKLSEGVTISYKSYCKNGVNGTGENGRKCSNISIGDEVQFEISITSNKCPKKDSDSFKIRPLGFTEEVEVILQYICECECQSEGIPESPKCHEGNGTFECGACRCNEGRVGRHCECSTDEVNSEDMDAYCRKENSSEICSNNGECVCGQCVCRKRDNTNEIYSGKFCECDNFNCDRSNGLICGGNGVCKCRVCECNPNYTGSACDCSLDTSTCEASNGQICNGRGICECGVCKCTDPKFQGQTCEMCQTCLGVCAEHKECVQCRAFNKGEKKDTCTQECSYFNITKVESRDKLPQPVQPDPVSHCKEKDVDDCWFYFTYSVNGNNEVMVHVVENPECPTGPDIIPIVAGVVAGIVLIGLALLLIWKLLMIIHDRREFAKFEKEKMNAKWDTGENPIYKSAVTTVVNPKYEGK

For the compound `COc1cnn(C)c(=O)c1-c1ccc(C[C@H](NC(=O)c2cc(F)ccc2Cl)C(=O)OCCO)cc1` [Cpd 2], on α4β1, the IC50 was over 5000 nM. For the same compound, in the test on TNBS induced colitis, the “% Inhibition of Epithelial Damage Score” value is on record as 10.25% and the “% Inhibition of Total Macroscopic Score” value was −0.885%.
In the case of `COc1cnn(C)c(=O)c1-c1ccc(C[C@H](NC(=O)C2(NC(=O)OC(C)(C)C)CCCC2)C(=O)O)cc1` [Cpd 223], the IC50 is 115 nM on human α4β7 integrin and over 5000 nM at α4β1.
Take `COc1cnn(C)c(=O)c1-c1ccc(C[C@H](NC(=O)C2(NC3CCC4(CC3)OCCO4)CC2)C(=O)O)cc1` [Cpd 224]: the values for the IC50 at human α4β7 integrin and on α4β1 were 14 nM and over 5000 nM, respectively.
Consider `COc1cnn(C)c(=O)c1-c1ccc(C[C@H](NC(=O)C2(NC3CCCC3)CC2)C(=O)O)cc1` [Cpd 225], for which the IC50 on human α4β7 integrin is 13 nM; at α4β1 it was 472 nM.
With `COc1cnn(C)c(=O)c1-c1ccc(C[C@H](NC(=O)C2(NC(C)=O)CC2)C(=O)O)cc1` [Cpd 227], the half-maximal inhibitory concentration (IC50) at human α4β7 integrin is 219 nM; at α4β1, over 5000 nM.
Turning to `COc1cnn(CC(C)=O)c(=O)c1-c1ccc(C[C@H](NC(=O)c2c(Cl)cccc2Cl)C(=O)O)cc1` [Cpd 228], the IC50 at human α4β7 integrin amounted to 6 nM; on α4β1, 535 nM.
The matching figures for `COc1cnn(C)c(=O)c1-c1ccc(C[C@H](NC(=O)C(C)(C)NC(N)=O)C(=O)O)cc1` [Cpd 229]: 89 nM and over 5000 nM.
